Consider 36 compounds from ChEMBL document CHEMBL1136073, “2,4-Dicarboxy-pyrroles as selective non-competitive mGluR1 antagonists: further characterization of 3,5-dimethyl pyrrole-2,4-dicarboxylic acid 2-propyl ester 4-(1,2,2-trimethyl-propyl) ester and structure-activity relationships” (Bioorg Med Chem Lett, 2003).

Holding throughout (assay type): cell-based
Assay [1] concerns the target T1, Metabotropic glutamate receptor 1 (Rattus norvegicus, UniProt P23385). Nature of the assay: In vitro inhibition of rat metabotropic glutamate receptor 1 in CHO cells using the CDP-DAG accumulation method.
In assay [2] the target is T1, Metabotropic glutamate receptor 1. The assay can be described thus: In vitro inhibition of rat Metabotropic glutamate receptor 1 in CHO cells using the CDP-DAG accumulation method: Not active uM.
The target is the same in assay [3]. The assay can be described thus: In vitro inhibitory concentration required against rat mGluR1a in CHO cells using the CDP-DAG accumulation method: Not active uM.
The target is the same in assay [4]. The assay can be described thus: In vitro inhibitory concentration required against rat mGluR1a in CHO cells using the CDP-DAG accumulation method.

T1 sequence (P23385 whole entry): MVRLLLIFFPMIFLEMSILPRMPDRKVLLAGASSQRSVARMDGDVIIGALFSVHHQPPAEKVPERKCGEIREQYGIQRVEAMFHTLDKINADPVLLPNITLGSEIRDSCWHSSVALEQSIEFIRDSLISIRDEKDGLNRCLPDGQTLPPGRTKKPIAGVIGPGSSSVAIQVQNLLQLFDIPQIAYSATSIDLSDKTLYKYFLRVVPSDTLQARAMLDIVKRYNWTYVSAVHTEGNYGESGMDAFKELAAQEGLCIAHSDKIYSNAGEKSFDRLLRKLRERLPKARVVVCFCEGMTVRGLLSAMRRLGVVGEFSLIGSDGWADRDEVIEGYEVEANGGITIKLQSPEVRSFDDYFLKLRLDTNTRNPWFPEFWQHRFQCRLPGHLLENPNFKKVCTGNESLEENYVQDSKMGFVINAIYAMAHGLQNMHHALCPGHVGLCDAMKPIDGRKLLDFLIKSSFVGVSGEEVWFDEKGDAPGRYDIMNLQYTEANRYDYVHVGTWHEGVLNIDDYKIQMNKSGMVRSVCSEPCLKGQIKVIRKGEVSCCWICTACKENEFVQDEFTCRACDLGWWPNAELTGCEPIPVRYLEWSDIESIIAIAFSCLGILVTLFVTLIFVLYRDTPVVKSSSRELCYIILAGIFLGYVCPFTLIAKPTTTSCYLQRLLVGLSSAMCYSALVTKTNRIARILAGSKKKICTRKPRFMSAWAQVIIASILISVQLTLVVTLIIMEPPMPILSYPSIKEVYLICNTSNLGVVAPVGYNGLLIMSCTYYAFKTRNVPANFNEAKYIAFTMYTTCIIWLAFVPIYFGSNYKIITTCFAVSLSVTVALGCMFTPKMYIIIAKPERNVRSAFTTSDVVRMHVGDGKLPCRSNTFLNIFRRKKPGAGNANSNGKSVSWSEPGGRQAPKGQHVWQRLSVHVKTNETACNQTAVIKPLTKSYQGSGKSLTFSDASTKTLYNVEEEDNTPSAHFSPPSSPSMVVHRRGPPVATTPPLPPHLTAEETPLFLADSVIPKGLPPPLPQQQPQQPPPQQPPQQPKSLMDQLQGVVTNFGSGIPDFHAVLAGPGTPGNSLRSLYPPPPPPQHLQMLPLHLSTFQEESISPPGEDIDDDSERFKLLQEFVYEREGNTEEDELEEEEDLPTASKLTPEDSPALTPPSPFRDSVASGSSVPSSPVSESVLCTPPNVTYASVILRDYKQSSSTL

`CCOC(=O)c1[nH]cc(C(=O)OC(C)(C)C)c1C`: in assay [1], the IC50 amounted to 340 nM.

Consider `CCCOC(=O)c1[nH]c(C(=O)OC)c(C(=O)OC(C)(C)C)c1C`, for which, in assay [1], the IC50 was found to be 3200 nM. `Cc1c(C(=O)OC(C)(C)C)c[nH]c1C(=O)O`: the IC50 result in assay [2] is “Not Active”. For `CCCOC(=O)c1[nH]c(CNCc2ccccc2)c(C(=O)OC(C)(C)C)c1C`, in assay [2], the IC50 result is recorded as “Not Active”.

Regarding `CCCOC(=O)c1[nH]c(C(=O)O)c(C(=O)OC(C)(C)C)c1C`, the IC50 entry in assay [2] was “Not Active”. In the case of `Cc1c(C(=O)OC(C)(C)C)c[nH]c1C(=O)OC(C)(C)C`, inhibition in assay [1] was half-maximal at 100 nM (IC50). Still for that read-out and setting: the same measure for `CCCOC(=O)c1[nH]c(CO)c(C(=O)OC(C)(C)C)c1C`: 7900 nM. On to `CCCOC(=O)c1c(C)c(C(=O)OC(C)(C)C)c(C)n1CC(=O)O`, for which, in assay [2], the IC50 entry is on record as “Not Active”. Take `CCCOC(=O)c1c(C)c(C(=O)OC(C)(C)C)c(C)n1CCN1CCOCC1`: in assay [3], the IC50 entry is reported as “Not Active”.

With `C=CCN1CCN(CCn2c(C)c(C(=O)OC(C)(C)C)c(C)c2C(=O)OCCC)CC1`, the IC50 result in assay [3] is “Not Active”. As for `CCCOC(=O)c1[nH]c(COC(C)=O)c(C(=O)OC(C)(C)C)c1C`, the IC50 in assay [1] is 2700 nM. In assay [4], `CCCOC(=O)c1c(C)c(C(=O)OC(C)(C)C)c(C)n1C(=O)OC(C)(C)C` returned an IC50 of 2300 nM.

As for `CCCOC(=O)c1c(C)c(C(=O)OC(C)(C)C)c(C)n1CCCO`, the IC50 in assay [1] was found to be 5800 nM. Compound `Cc1c(C(=O)OC(C)C(C)(C)C)c[nH]c1C(=O)Oc1c(F)c(F)c(F)c(F)c1F` (stereo unspecified) returned an IC50 in assay [1] of 160 nM. Same read-out and setting: to `CCCOC(=O)c1[nH]c(C(=O)Sc2ccccn2)c(C(=O)OC(C)(C)C)c1C` belongs 3200 nM; to `Cc1c(C(=O)OC(C)C(C)(C)C)c[nH]c1C(=O)Oc1cccnc1` (stereo unspecified), 720 nM.

On to `CCCOC(=O)c1c(C)c(C(=O)OC(C)(C)C)c(C)n1CCO[Si](c1ccccc1)(c1ccccc1)C(C)(C)C`, for which, in assay [2], the IC50 result is “Not Active”. As to `Cc1c(C(=O)OC(C)(C)C)c[nH]c1C(=O)Sc1ccccn1`, the midpoint of inhibition in assay [1], the IC50, lay at 3000 nM. In assay [1], `C=CCOC(=O)Cn1c(C)c(C(=O)OC(C)(C)C)c(C)c1C(=O)OCCC` gave an IC50 of 12600 nM.

Regarding `CCCOC(=O)c1[nH]c(C)c(C(=O)OC(C)C(C)(C)C)c1C` (stereo unspecified), in assay [1], the IC50 stood at 15800 nM.

With `CCCOC(=O)c1[nH]c(CN)c(C(=O)OC(C)(C)C)c1C`, the IC50 entry in assay [2] is listed as “Not Active”. `CCCOC(=O)c1[nH]cc(C(=O)OC(C)(C)C)c1C`: in assay [1], the IC50 was found to be 75 nM. In the case of `Cc1c(C(=O)OC(C)(C)C)c[nH]c1C(=O)OCc1ccco1`, half-maximal inhibition in assay [1] (IC50) required 1200 nM. Compound `Cc1c(C(=O)OC(C)C(C)(C)C)c[nH]c1C(=O)Oc1ccncn1` (stereo unspecified) yielded an IC50 in assay [1] of 1450 nM. The compound `Cc1c(C(=O)OC(C)C(C)(C)C)c[nH]c1C(=O)OC(C)CN(C)C` (stereo unspecified) gave an IC50 in assay [1] of 390 nM. With `CCCOC(=O)c1[nH]c(C(=O)NCC2CC2)c(C(=O)OC(C)(C)C)c1C`, in assay [1], the midpoint of inhibition, the IC50, lay at 2500 nM. `CCCOC(=O)c1c(C)c(C(=O)OC(C)(C)C)c(C)n1CN1CCCCC1`: the IC50 entry in assay [2] is “Not Active”. `CCCOC(=O)c1[nH]c(C=O)c(C(=O)OC(C)(C)C)c1C` had an IC50 in assay [1] of 2000 nM. In assay [1], `CCCOC(=O)c1[nH]cc(C(=O)OC(C)C(C)(C)C)c1C` (stereo unspecified) came in with an IC50 of 4 nM. Compound `CCCOC(=O)c1c(C)c(C(=O)OC(C)(C)C)c(C)n1C` had an IC50 in assay [4] of 1000 nM. As to `Cc1c(C(=O)OC(C)(C)C)c[nH]c1C(=O)OCC1CC1`, in assay [1], the IC50 was 48 nM. On to `CCCOC(=O)c1c(C)c(C(=O)OC(C)(C)C)c(C)n1CC(=O)N(C)C`, for which the IC50 entry in assay [2] is recorded as “Not Active”.

In assay [1], `Cc1c(C(=O)OC(C)C(C)(C)C)c[nH]c1C(=O)OC(C)(C)C` (stereo unspecified) gave an IC50 of 17 nM. `CCCOC(=O)c1[nH]c(Cl)c(C(=O)OC(C)C(C)(C)C)c1C` (stereo unspecified) registered an IC50 in assay [1] of 160 nM. Turning to `CCN1CCC(OC(=O)c2[nH]cc(C(=O)OC(C)C(C)(C)C)c2C)C1` (stereo unspecified), in assay [1], the IC50 was 260 nM. Take `CCCOC(=O)c1c(C)c(C(=O)OC(C)(C)C)c(C)n1CCCO[Si](c1ccccc1)(c1ccccc1)C(C)(C)C`: in assay [2], the IC50 entry is “Not Active”.
